Legend:
[1] = tested on: outer hair cells (OHC) in the cochlea; test: Cochlear hair cell loss (cochleogram) after noise trauma; format: in vivo, mice; conditions: 26.4 mg/kg peroral once daily for 14 days after noise trauma; at growing distances from the apex; vs placebo; FIG. 2
Experimental: (§1) Noise application was performed for 3 h under anesthesia, using a broad band noise 4-20 kHz, 115 dB SPL, free-field.
(§2) Post-traumatic (0; 24 h; 48 h or 72 h after noise exposure) initiation of oral administration of 26.4 mg/kg (R)-azasetron besylate or of the related placebo formulation, respectively, was performed once daily. Treatments were continued daily for 14 days. • Treatment (T) group 1 +Placebo (P) group 1: Treatment from d1-d14 • Treatment (T) group 2 +Placebo (P) group 2: Treatment from d2-d15 • Treatment (T) group 3 +Placebo (P) group 3: Treatment from d3-d16 • Treatment (T) group 4 +Placebo (P) group 4: Treatment from d4-d17
(§3) Six animals per group (48 in total) have been perfused via the left hearth chamber with a fixative solution (paraformaldehyde (4%)) on day 15.
(§4) Cochleae and brains were prepared (cutting, staining), as disclosed in Gröschel et al. (2010).

[2] = tested on: neuronal cells in the ventral cochlear nucleus (VCN); test: Neuronal cell density in the ventral cochlear nucleus (VCN) after noise trauma; format: in vivo, mice
Experimental: as §1, §2, §3, §4

[3] = tested on: young adult NMRI mice having undergone an acoustic trauma; test: Frequency specific ABR thresholds after noise trauma; format: in vivo; conditions: 26.4 mg/kg peroral once daily for 14 days after noise trauma (4-20 kHz, 115 dB SPL, 3 h); compared to placebo; FIG. 1
Experimental: 12 animals per group (young adult Naval Medical Research Institute (NMRI) mice), 96 animals in total.
Frequency specific ABR-thresholds at 4; 8; 12; 16; 20; 24; 28; 32 kHz under anesthesia (Ketamine/Xylazine). At least 3 measurements per frequency were performed.
as §1, §2

[4] = tested on: neuronal cells in the inferior colliculus (IC); test: Neuronal cell density in the inferior colliculus (IC) after noise trauma; format: in vivo, mice; conditions: 26.4 mg/kg peroral once daily for 14 days, initiated 0 h, 24 h, 48 h or 72 h after acoustic trauma; compared to placebo; FIG. 5
Experimental: as §1, §2, §3, §4

CN1C(=O)COc2c(C(=O)N[C@H]3CN4CCC3CC4)cc(Cl)cc21 [(R)-azasetron besylate]
loss of outer hair cells (OHC) in the cochlea [1]: affects the loss of outer hair cells | destruction of neuronal cells in the VCN (normalized cell densities per grid) ([2]; 26.4 mg/kg peroral once daily for 14 days, initiated immediately or 24/48/72 h after acoustic trauma, vs placebo, FIGS. 3 and 4): reduces the destruction of neuronal cells | threshold shift of the auditory brainstem response [3]: does not significantly affect | destruction of neuronal cells in the IC (normalized cell densities per grid) [4]: reduces the destruction of neuronal cells

CN1C(=O)COc2c(C(=O)NC3CN4CCC3CC4)cc(Cl)cc21 (centres unmarked) [azasetron, N-(1-azabicyclo[2.2.2]octan-8-yl)-6-chloro-4-methyl-3-oxo-1,4-benzoxazine-8-carboxamide, reference compound]
loss of neurons in the brainstem ([2]; administration upon the onset of lesions after acoustic trauma, summary in discussion (VCN and IC)): significantly reduce the loss of neurons

— patent publication US20220265668A1, “TREATMENT AND/OR PREVENTION OF LESIONS IN THE CENTRAL AUDITORY NERVOUS SYSTEM” (SENSORION, priority 2019, published 2022)
